This note sets out measurements from ChEMBL document CHEMBL3352601, “Discovery of potent iminoheterocycle BACE1 inhibitors” (Bioorg Med Chem Lett, 2014).

Usually Ki stands for a dissociation constant, usually derived from enzyme kinetics or from competition with a known ligand. The term EC50 denotes the concentration at which the effect is half-maximal. Broadly, the AUC(0-t) is exposure summed from dosing to a finite time, without extrapolation to infinity.

The source made the active and inactive calls. No cut-off for these calls is given here.

In series [1] the target is T1, Beta-secretase 1 (Homo sapiens, UniProt P56817).
T1 sequence (P56817 whole entry): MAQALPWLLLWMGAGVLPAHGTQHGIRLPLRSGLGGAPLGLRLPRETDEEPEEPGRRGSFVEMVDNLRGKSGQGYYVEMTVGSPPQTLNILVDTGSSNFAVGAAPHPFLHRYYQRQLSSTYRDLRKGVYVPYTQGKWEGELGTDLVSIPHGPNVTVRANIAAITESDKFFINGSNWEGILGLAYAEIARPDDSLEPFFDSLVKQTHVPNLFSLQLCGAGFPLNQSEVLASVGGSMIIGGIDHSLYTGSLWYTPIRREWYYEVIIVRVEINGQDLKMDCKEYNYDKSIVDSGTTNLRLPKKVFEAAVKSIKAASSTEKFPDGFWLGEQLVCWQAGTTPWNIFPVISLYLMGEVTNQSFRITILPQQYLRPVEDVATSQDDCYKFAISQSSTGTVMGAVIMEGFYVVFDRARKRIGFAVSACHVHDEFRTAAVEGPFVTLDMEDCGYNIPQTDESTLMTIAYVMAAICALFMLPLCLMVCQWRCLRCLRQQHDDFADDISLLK
Description: Inhibition of purified human BACE1 by FRET assay
The target in a further series is Cathepsin D (Homo sapiens, UniProt P07339).
Sequence of Cathepsin D (P07339 65-162 limits assumed): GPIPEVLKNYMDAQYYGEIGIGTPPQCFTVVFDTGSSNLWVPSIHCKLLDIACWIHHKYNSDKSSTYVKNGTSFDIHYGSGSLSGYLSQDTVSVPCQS
Sequence of Cathepsin D (P07339 169-412 limits assumed): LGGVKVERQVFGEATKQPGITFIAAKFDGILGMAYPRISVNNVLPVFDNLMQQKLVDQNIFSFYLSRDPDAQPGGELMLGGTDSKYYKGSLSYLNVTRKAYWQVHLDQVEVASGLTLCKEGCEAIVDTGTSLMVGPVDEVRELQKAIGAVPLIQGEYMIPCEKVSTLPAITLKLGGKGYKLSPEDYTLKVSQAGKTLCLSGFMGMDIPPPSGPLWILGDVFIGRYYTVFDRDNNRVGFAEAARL
Series [2] addresses T1, Beta-secretase 1. The series can be described thus: Inhibition of BACE1-mediated amyloid beta 40 production in HEK293-APPswe/lon cells by whole cell assay. The series is classed as cell-based.
The next series has as its system Rattus norvegicus. The series can be described thus: Reduction of amyloid beta 40 level in rat plasma at 30 mg/kg, po relative to control. Format: functional. Details: scale not given: the % may be the effect or the level left.
For series [3], the target named is T1, Beta-secretase 1. The series can be described thus: Inhibition of BACE1-mediated amyloid beta 40 production in HEK293-APPswe/lon cells by whole cell assay in presence of P-gp inhibitor. The series is classed as cell-based.
The species entered for another series is Mus musculus. The series can be described thus: Reduction of cortical amyloid beta 40 level in CRND8-APP mouse model. The series is classed as functional, organism-based.
A further series can be described thus: in vivo. As to conditions: rat, plasma, sc, 10 mg/kg.

Description for Cathepsin D: Inhibition of cathepsin-D (unknown origin)

Take `CN1C(=N)N[C@](CCC2CCCCC2)(C[C@H]2CCC[C@@H](NCC3CC3)C2)C1=O`: the Ki at Beta-secretase 1 [1] stood at 0.48 µM; at Cathepsin D it was 53.3 µM.
With `CN1C(=N)N[C@](CCC2CCCCC2)(C[C@H]2CCC[C@@H](NC(=O)NC3CCCCC3)C2)C1=O`, the results for the Ki at Beta-secretase 1 [1] and on Cathepsin D were 0.138 µM and 6 µM, respectively.
For the compound `CCCCS(=O)(=O)N1CCC[C@H](C[C@@]2(CCC3CCCCC3)NC(=N)N(C)C2=O)C1`, the Ki at Beta-secretase 1 [1] worked out at 6.3 µM; on Cathepsin D it was 25.5 µM.
Taken in the same sequence, the figures for `CN1C(=N)N[C@](CCC2CCCCC2)(C[C@H]2CCC[C@@H](NC(=O)Nc3cnc4ccccc4n3)C2)C1=O` were 0.014 µM and 7.5 µM.
`CCCCC(=O)N1CCC[C@H](C[C@@]2(CCC3CCCCC3)NC(=N)N(C)C2=O)C1`: the Ki came out at 3.2 µM on Beta-secretase 1 [1] and 44 µM at Cathepsin D.
For `CN1C(=N)N[C@](CCC2CCCCC2)(C[C@H]2CCCNC2)C1=O`, in that order: 8.5 µM and > 100 µM.
As for `CCCCC(=O)N1CCC[C@@H](C[C@@]2(CCC3CCCCC3)NC(=N)N(C)C2=O)C1`, the values for the Ki on Beta-secretase 1 [1] and at Cathepsin D were 17 µM and 28 µM, respectively.
Turning to `CN1C(=N)N[C@](CCC2CCCCC2)(C[C@H]2CCC[C@@H](NC(=O)Nc3ccc4ccccc4n3)C2)C1=O`, the figures for the EC50 on Beta-secretase 1 [2] and on Beta-secretase 1 [3] were 0.258 µM and 0.11 µM, respectively. In the series on Rattus norvegicus, this compound showed an Activity of 55%. In the series filed under Mus musculus, the result was inactive. Further, the Ki at Beta-secretase 1 [1] stood at 0.022 µM; on Cathepsin D, 25 µM. The same compound gave an AUC(0-t) at 6 h in “in vivo” of 0.306 µM·h.
Take `COc1ccc(NC(=O)N[C@@H]2CCC[C@H](C[C@@]3(CCC4CCCCC4)NC(=N)N(C)C3=O)C2)cc1`: the Ki on Beta-secretase 1 [1] is 0.01 µM; at Cathepsin D, 2.5 µM.
Turning to `CN1C(=N)N[C@](CCC2CCCCC2)(C[C@@H]2CCCNC2)C1=O`, the Ki was 66 µM on Beta-secretase 1 [1] and > 100 µM on Cathepsin D.
As to `CN1C(=N)N[C@](CCC2CCCCC2)(C[C@@H]2CCCN(C(=O)CC3CCCC3)C2)C1=O`, affinity at Cathepsin D was put at a Ki of 8.5 µM.
In the case of `CN1C(=N)N[C@](CCC2CCCCC2)(C[C@H]2CCC[C@@H](NC(=O)Nc3ccccc3Cl)C2)C1=O`, the results for the Ki on Beta-secretase 1 [1] and at Cathepsin D were 0.301 µM and 8.5 µM, respectively.
Taken in the same sequence, the figures for `CN1C(=N)N[C@](CCC2CCCCC2)(C[C@H]2CCC[C@@H](NC3CCCCC3)C2)C1=O` were 0.23 µM and 63.5 µM.
With `CCCCC(=O)N1CC[C@H](C[C@@]2(CCC3CCCCC3)NC(=N)N(C)C2=O)C1`, the Ki at Beta-secretase 1 [1] was determined as 0.49 µM; on Cathepsin D, 23 µM.
On to `CN1C(=N)N[C@](CCC2CCCCC2)(C[C@H]2CCCN(C(=O)OC(C)(C)C)C2)C1=O`, for which the Ki at Beta-secretase 1 [1] was 29 µM; at Cathepsin D it was > 100 µM.
Turning to `CCCNC(=O)N1CCC[C@H](C[C@@]2(CCC3CCCCC3)NC(=N)N(C)C2=O)C1`, the results for the Ki at Beta-secretase 1 [1] and at Cathepsin D were 8.5 µM and 2.8 µM, respectively.
Compound `CN1C(=N)N[C@](CCC2CCCCC2)(C[C@H]2CCCN(C(=O)CC3CCCC3)C2)C1=O` gave a Ki at Cathepsin D of 0.87 µM.
For the compound `CN1C(=N)N[C@](CCC2CCCCC2)(C[C@H]2CCC[C@@H](NC(=O)Nc3ccc(C#N)cc3)C2)C1=O`, the Ki stood at 0.003 µM at Beta-secretase 1 [1] and 6.9 µM on Cathepsin D.
`CN1C(=N)N[C@](CCC2CCCCC2)(C[C@H]2CCC[C@@H](NC(=O)Cc3ccccc3)C2)C1=O`: the Ki at Beta-secretase 1 [1] stood at 0.585 µM; on Cathepsin D, 3.5 µM.
Regarding `COc1ccccc1NC(=O)N[C@@H]1CCC[C@H](C[C@@]2(CCC3CCCCC3)NC(=N)N(C)C2=O)C1`, the Ki amounted to 0.276 µM on Beta-secretase 1 [1] and 2.4 µM on Cathepsin D.
Regarding `CN1C(=N)N[C@](CCC2CCCCC2)(C[C@@H]2CCCN(C(=O)OC(C)(C)C)C2)C1=O`, the Ki at Beta-secretase 1 [1] is 41 µM; on Cathepsin D, 33 µM.
`CCCCCN1CCC[C@H](C[C@@]2(CCC3CCCCC3)NC(=N)N(C)C2=O)C1`: the Ki is 7.6 µM on Beta-secretase 1 [1] and > 100 µM on Cathepsin D.
As to `CCCCC(=O)N1CC[C@@H](C[C@@]2(CCC3CCCCC3)NC(=N)N(C)C2=O)C1`, the inhibition constant (Ki) on Beta-secretase 1 [1] stood at 17.4 µM.
Consider `CN1C(=N)N[C@](CCC2CCCCC2)(C[C@H]2CCC[C@@H](NC(=O)c3ccccc3)C2)C1=O`, for which the Ki on Beta-secretase 1 [1] turned out to be 0.13 µM; on Cathepsin D, 3.8 µM.
For `CN1C(=N)N[C@](CCC2CCCCC2)(C[C@H]2CCC[C@@H](NC(=O)Nc3ccc(Cl)cc3)C2)C1=O`, in that order: 0.01 µM and > 100 µM.
